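Protocol summary: plate cells (96-well), add compound at 5 concentrations, incubate 48 h, interpolate endpoints linearly. GI50: concentration for 50% inhibition of growth.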 Active and inactive are the calls of the source. Rule as the data show it: active = GI50 up to about 1.1 µM and inactive = higher.
Tests used:
Assay in all cases: NCI tumour cell line growth inhibition, 48 h
SW-620 = test system: SW-620
UACC-62 = test system: UACC-62
T47D = test system: T47D
NCI-H460 = test system: NCI-H460
OVCAR-5 = test system: OVCAR-5
UACC-257 = test system: UACC-257
LOX IMVI = test system: LOX IMVI
HOP-92 = test system: HOP-92
KM12 = test system: KM12
MCF7 = test system: MCF7
MDA-N = test system: MDA-N
SF-268 = test system: SF-268
MOLT-4 = test system: MOLT-4
A549 = test system: A549
HOP-62 = test system: HOP-62
RPMI-8226 = test system: RPMI-8226
786-0 = test system: 786-0
CCRF-CEM = test system: CCRF-CEM
SNB-19 = test system: SNB-19
HT-29 = test system: HT-29
Malme-3M = test system: Malme-3M
SK-MEL-28 = test system: SK-MEL-28
MDA-MB-435 = test system: MDA-MB-435
IGROV-1 = test system: IGROV-1
NCI/ADR-RES = test system: NCI/ADR-RES
NCI-H522 = test system: NCI-H522
TK-10 = test system: TK-10
UO-31 = test system: UO-31
Hs-578T = test system: Hs-578T
SN12C = test system: SN12C
SF-295 = test system: SF-295
HL-60 = test system: HL-60
NCI-H23 = test system: NCI-H23
SK-MEL-2 = test system: SK-MEL-2
SK-OV-3 = test system: SK-OV-3
SNB-75 = test system: SNB-75
COLO 205 = test system: COLO 205
HCT-116 = test system: HCT-116
M14 = test system: M14
SR = test system: SR
U-251 = test system: U-251
SK-MEL-5 = test system: SK-MEL-5
PC-3 = test system: PC-3
DU-145 = test system: DU-145
NCI-H226 = test system: NCI-H226
ACHN = test system: ACHN
K562 = test system: K562
BT-549 = test system: BT-549
OVCAR-8 = test system: OVCAR-8
OVCAR-3 = test system: OVCAR-3
EKVX = test system: EKVX
OVCAR-4 = test system: OVCAR-4
CAKI-1 = test system: CAKI-1
HCT-15 = test system: HCT-15
RXF 393 = test system: RXF 393
A498 = test system: A498
HCC 2998 = test system: HCC 2998
SF-539 = test system: SF-539
MDA-MB-231 = test system: MDA-MB-231

In the case of `CCCC[S+]([O-])CCC(N)P(=O)(O)O` (centres undefined), the GI50 (SW-620) was > 100 µM (inactive), the GI50 (UACC-62) was > 100 µM (inactive) and the GI50 (T47D) was > 100 µM (inactive). The GI50 (NCI-H460) was > 100 µM (inactive), the GI50 (OVCAR-5) was > 100 µM (inactive) and the GI50 (UACC-257) was > 100 µM (inactive). The GI50 (LOX IMVI) was > 100 µM (inactive), the GI50 (HOP-92) was > 100 µM (inactive) and the GI50 (KM12) was > 100 µM (inactive). For the same compound, the GI50 (MCF7) was > 100 µM (inactive), the GI50 (MDA-N) was > 100 µM (inactive) and the GI50 (SF-268) was > 100 µM (inactive). For the same compound, the GI50 (MOLT-4) was > 100 µM (inactive), the GI50 (A549) was > 100 µM (inactive) and the GI50 (HOP-62) was > 100 µM (inactive). For the same compound, the GI50 (RPMI-8226) was > 100 µM (inactive), the GI50 (786-0) was > 100 µM (inactive) and the GI50 (CCRF-CEM) was > 100 µM (inactive). The GI50 (SNB-19) was > 100 µM (inactive), the GI50 (HT-29) was > 100 µM (inactive) and the GI50 (Malme-3M) was > 100 µM (inactive). The GI50 (SK-MEL-28) was > 100 µM (inactive), the GI50 (MDA-MB-435) was > 100 µM (inactive) and the GI50 (IGROV-1) was > 100 µM (inactive). The GI50 (NCI/ADR-RES) was > 100 µM (inactive), the GI50 (NCI-H522) was > 100 µM (inactive) and the GI50 (TK-10) was > 100 µM (inactive). The GI50 (UO-31) was > 100 µM (inactive), the GI50 (Hs-578T) was > 100 µM (inactive) and the GI50 (SN12C) was > 100 µM (inactive). For the same compound, the GI50 (SF-295) was > 100 µM (inactive), the GI50 (HL-60) was > 100 µM (inactive) and the GI50 (NCI-H23) was > 100 µM (inactive). For the same compound, the GI50 (SK-MEL-2) was > 100 µM (inactive), the GI50 (SK-OV-3) was > 100 µM (inactive) and the GI50 (SNB-75) was > 100 µM (inactive). The GI50 (COLO 205) was > 100 µM (inactive), the GI50 (HCT-116) was > 100 µM (inactive) and the GI50 (M14) was > 100 µM (inactive). The GI50 (SR) was > 100 µM (inactive), the GI50 (U-251) was > 100 µM (inactive) and the GI50 (SK-MEL-5) was > 100 µM (inactive). For the same compound, the GI50 (PC-3) was > 100 µM (inactive), the GI50 (DU-145) was > 100 µM (inactive) and the GI50 (NCI-H226) was > 100 µM (inactive). For the same compound, the GI50 (ACHN) was > 100 µM (inactive), the GI50 (K562) was > 100 µM (inactive) and the GI50 (BT-549) was > 100 µM (inactive). The GI50 (OVCAR-8) was > 100 µM (inactive), the GI50 (OVCAR-3) was > 100 µM (inactive) and the GI50 (EKVX) was > 100 µM (inactive). For the same compound, the GI50 (OVCAR-4) was > 100 µM (inactive), the GI50 (CAKI-1) was > 100 µM (inactive) and the GI50 (HCT-15) was greater than 100 µM.
In the case of `CC(=O)C1=C(N=[N+]=[N-])c2cccc3cccc(c23)C1=O`, the GI50 (SW-620) was 18.3 µM (inactive), the GI50 (UACC-62) was 15.2 µM (inactive) and the GI50 (T47D) was 15.8 µM (inactive). The GI50 (NCI-H460) was 21 µM (inactive), the GI50 (OVCAR-5) was 16.5 µM (inactive) and the GI50 (UACC-257) was 17.9 µM (inactive). The GI50 (LOX IMVI) was 14.7 µM (inactive), the GI50 (RXF 393) was 11.4 µM (inactive) and the GI50 (HOP-92) was 21.7 µM (inactive). The GI50 (KM12) was 21.1 µM (inactive), the GI50 (MCF7) was 10.6 µM (inactive) and the GI50 (MDA-N) was 18.9 µM (inactive). The GI50 (SF-268) was 25.2 µM (inactive), the GI50 (A498) was 28.8 µM (inactive) and the GI50 (MOLT-4) was 7.19 µM (inactive). The GI50 (A549) was 24.5 µM (inactive), the GI50 (HOP-62) was 14.8 µM (inactive) and the GI50 (RPMI-8226) was 18.5 µM (inactive). The GI50 (786-0) was 17.1 µM (inactive), the GI50 (CCRF-CEM) was 5.73 µM (inactive) and the GI50 (SNB-19) was 30.1 µM (inactive). For the same compound, the GI50 (HT-29) was 17.6 µM (inactive), the GI50 (HCC 2998) was 17.6 µM (inactive) and the GI50 (Malme-3M) was 17.3 µM (inactive). The GI50 (MDA-MB-435) was 20.6 µM (inactive), the GI50 (IGROV-1) was 16.1 µM (inactive) and the GI50 (NCI/ADR-RES) was 25.1 µM (inactive). For the same compound, the GI50 (NCI-H522) was 14.2 µM (inactive), the GI50 (TK-10) was 15.3 µM (inactive) and the GI50 (UO-31) was 14.6 µM (inactive). For the same compound, the GI50 (Hs-578T) was 29.3 µM (inactive), the GI50 (SF-539) was 13.3 µM (inactive) and the GI50 (SN12C) was 16.1 µM (inactive). The GI50 (SF-295) was 22.5 µM (inactive), the GI50 (NCI-H23) was 20 µM (inactive) and the GI50 (SK-MEL-2) was 12.4 µM (inactive). For the same compound, the GI50 (SK-OV-3) was 24 µM (inactive), the GI50 (SNB-75) was 21.8 µM (inactive) and the GI50 (MDA-MB-231) was 11.5 µM (inactive). For the same compound, the GI50 (COLO 205) was 15.7 µM (inactive), the GI50 (HCT-116) was 16 µM (inactive) and the GI50 (M14) was 12.7 µM (inactive). For the same compound, the GI50 (U-251) was 19.2 µM (inactive), the GI50 (SK-MEL-5) was 18.7 µM (inactive) and the GI50 (PC-3) was 19.8 µM (inactive). For the same compound, the GI50 (NCI-H226) was 24.7 µM (inactive), the GI50 (ACHN) was 16 µM (inactive) and the GI50 (K562) was 8.11 µM (inactive). The GI50 (BT-549) was 20.8 µM (inactive), the GI50 (OVCAR-8) was 23.6 µM (inactive) and the GI50 (OVCAR-3) was 12.2 µM (inactive). For the same compound, the GI50 (EKVX) was 18.2 µM (inactive), the GI50 (OVCAR-4) was 23.6 µM (inactive) and the GI50 (CAKI-1) was 15.3 µM (inactive). It also gave a GI50 (HCT-15) of 15.7 µM.
`O=c1[nH]c(=O)n(C2CC(O)C(CO)O2)cc1C1=NC1` (centres undefined) was tested, and the GI50 (SW-620) was > 100 µM (inactive), the GI50 (UACC-62) was > 100 µM (inactive) and the GI50 (T47D) was 35.2 µM (inactive). The GI50 (NCI-H460) was > 100 µM (inactive), the GI50 (OVCAR-5) was > 100 µM (inactive) and the GI50 (UACC-257) was > 100 µM (inactive). The GI50 (RXF 393) was > 100 µM (inactive), the GI50 (HOP-92) was > 100 µM (inactive) and the GI50 (KM12) was > 100 µM (inactive). For the same compound, the GI50 (MCF7) was > 100 µM (inactive), the GI50 (MDA-N) was > 100 µM (inactive) and the GI50 (SF-268) was > 100 µM (inactive). The GI50 (A498) was > 100 µM (inactive), the GI50 (MOLT-4) was > 100 µM (inactive) and the GI50 (A549) was > 100 µM (inactive). The GI50 (HOP-62) was > 100 µM (inactive), the GI50 (RPMI-8226) was 50.6 µM (inactive) and the GI50 (786-0) was > 100 µM (inactive). For the same compound, the GI50 (SNB-19) was > 100 µM (inactive), the GI50 (HT-29) was > 100 µM (inactive) and the GI50 (HCC 2998) was > 100 µM (inactive). The GI50 (SK-MEL-28) was > 100 µM (inactive), the GI50 (MDA-MB-435) was > 100 µM (inactive) and the GI50 (IGROV-1) was > 100 µM (inactive). The GI50 (NCI/ADR-RES) was > 100 µM (inactive), the GI50 (TK-10) was > 100 µM (inactive) and the GI50 (UO-31) was > 100 µM (inactive). For the same compound, the GI50 (Hs-578T) was > 100 µM (inactive), the GI50 (SF-539) was > 100 µM (inactive) and the GI50 (SN12C) was > 100 µM (inactive). For the same compound, the GI50 (SF-295) was > 100 µM (inactive), the GI50 (NCI-H23) was > 100 µM (inactive) and the GI50 (SK-MEL-2) was > 100 µM (inactive). The GI50 (SK-OV-3) was > 100 µM (inactive), the GI50 (SNB-75) was 81.3 µM (inactive) and the GI50 (MDA-MB-231) was > 100 µM (inactive). For the same compound, the GI50 (COLO 205) was > 100 µM (inactive), the GI50 (HCT-116) was > 100 µM (inactive) and the GI50 (M14) was > 100 µM (inactive). For the same compound, the GI50 (U-251) was > 100 µM (inactive), the GI50 (SK-MEL-5) was > 100 µM (inactive) and the GI50 (DU-145) was > 100 µM (inactive). The GI50 (NCI-H226) was > 100 µM (inactive), the GI50 (ACHN) was > 100 µM (inactive) and the GI50 (BT-549) was > 100 µM (inactive). For the same compound, the GI50 (OVCAR-8) was > 100 µM (inactive), the GI50 (OVCAR-3) was > 100 µM (inactive) and the GI50 (EKVX) was > 100 µM (inactive). The GI50 (OVCAR-4) was > 100 µM (inactive) and the GI50 (HCT-15) was greater than 100 µM.
